Results as given in article PMC6302903, “Protein and Chemical Determinants of BL-1249 Action and Selectivity for K2P Channels” (ACS Chemical Neuroscience, 2018).

Target: T1, K2P4.1(TRAAK) L147F (Mus musculus, UniProt O88454, L147F)
T1 construct: expressed in transfected cells; host or cells: Xenopus laevis oocytes, mRNA injected
Experiment: TEVC of K2P4.1(TRAAK) mutant L147F
Format: cell-based
Details: Xenopus oocytes
Excerpt: To identify K2P2.1(TREK-1) M2 residues that might participate in the BL-1249 response, we mapped the residues that differ between K2P2.1(TREK-1) and K2P4.1(TRAAK) in the context of the K2P2.1(TREK-1) structure[6] (Figure 5B,C). Two K2P2.1(TREK-1) M2 residues stood out as candidates that could explain the reduction in BL-1249 response when the entire M2 helix was replaced with M2 from K2P4.1(TRAAK). One is at the M2/M4 interface and occurs between Phe172 and Arg297 via a π–cation interaction that would be lost when Phe172 is replaced with the equivalent K2P4.1(TRAAK) residue Met134 (Figure 5C, right inset). […] To assess the importance of these interactions in the context of BL-1249 response, we made the K2P2.1(TREK-1) mutants F172M and F185L and measured their responses to BL-1249 (Figure 5D). […]
Xenopus laevis oocytes were harvested in accordance with UCSF IACUC protocol AN129690 and digested in calcium-free ND-96 (96 mM NaCl, 2 mM KCl, 3.8 mM MgCl2) immediately following harvest, as previously described.[6],[10] […] Defolliculated stage V–VI oocytes were injected with 0.2–6.0 ng of mRNA in 50 nL, and currents were recorded 24–48 h after injection. mRNA was synthesized from plasmid DNA using mMessage mMachine Kit (T7 promoter, Ambion, Life Technologies) and purified using RNEasy Kit (Qiagen). […]

T1 sequence (O88454 whole entry L147F): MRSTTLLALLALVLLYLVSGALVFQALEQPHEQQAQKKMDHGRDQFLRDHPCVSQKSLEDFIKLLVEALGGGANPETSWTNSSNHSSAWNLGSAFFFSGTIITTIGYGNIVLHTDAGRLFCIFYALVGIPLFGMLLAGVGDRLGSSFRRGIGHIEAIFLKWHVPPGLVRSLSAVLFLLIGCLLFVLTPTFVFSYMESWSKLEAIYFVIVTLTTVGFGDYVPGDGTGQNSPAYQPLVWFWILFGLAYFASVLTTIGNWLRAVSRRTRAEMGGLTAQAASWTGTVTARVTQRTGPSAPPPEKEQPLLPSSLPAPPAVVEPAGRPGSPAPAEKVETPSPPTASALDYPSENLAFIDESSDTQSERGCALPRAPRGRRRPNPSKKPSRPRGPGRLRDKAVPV

EC50: 27 ± 4 µM
Compound: c1ccc(-c2nnn[nH]2)c(Nc2cccc3c2CCCC3)c1 [BL-1249, (5,6,7,8-tetrahydro-naphthalen-1-yl)-[2-(1H-tetrazol-5-yl)-phenyl]-amine]
